Measurements published in patent publication US20240140947A1, “COMPOUND FOR THE TREATMENT OF CANCER” (priority 2022, published 2024).
Read-outs that look alike come from different tables or passages of the source.

Key:
MCF7 parental = assay: Cell proliferation assay (CYQUANT, 7 days), MCF7 parental; assay type: cell-based; details: Homo sapiens, read-out: IC50 ± SEM, proliferation inhibition
Protocol: (§1) Cellular CDK activity of Compound 1 and PF-06873600 were assessed in human CCNE1-amplified ovarian cancer cell line model OVCAR3 and human ER+ breast cancer cell line model MCF7 cells. […] OVCAR3 cells were treated overnight with 1 mM hydroxyurea to enrich for G1/S phase cells prior to treatment with inhibitors. Functional effects were measured in a 7-day anti-proliferation assay in one human ovarian cancer (OVCAR3), two human ER+ breast cancer (MCF7 and T47D) and three human non-small cell lung cancer (NCIH2087, NCIH358 and A549) cell line models.
(§2) OVCAR3, MCF7, T47D, HCC1428, NCIH2087, NCIH358 or A549cells were seeded 1-3000 cells/well in 96-well plates in growth media containing 10% FBS and cultured overnight at 37° C. 5% CO2. The following day, compounds were serially diluted from a 10 mM top dose for an 11-point 3-fold dilution curve in DMSO. […] CYQUANT Direct Cell Proliferation Assay (Molecular Probes, Eugene, OR) was then performed following manufacturer recommendations to determine the relative viable cell numbers on the Perkin Elmer Envision 2104 Multi Label Reader at 508 nm excitation and 527 nm emission wavelengths. IC50 values were calculated by concentration-response curve fitting utilizing a four-parameter analytical method using GraphPad Prism software.

[1] = system: phosphorylation of Rb protein at serines 807/811 in MCF7 cells; assay: Phospho-Serine 807/811 Rb ELISA in MCF7 cells; assay type: cell-based; details: Homo sapiens, read-out: IC50 ± SEM, modulation of pRB Serine 807/811
Protocol: as §1
(§3) OVCAR3 or MCF7 cells were seeded at 25,000 cells/well in 100 μL growth media and allowed to adhere at 37° C. with 5% CO2 overnight. OVCAR3 cells were treated overnight with 1 mM hydroxyurea to enrich for G1/S phase cells prior to treatment with inhibitors. The following day, compounds were serially diluted from a 10 mM top dose for an 11-point 3-fold dilution curve in DMSO. Compound 1 and PF-06873600 were intermediately diluted 1:200 into growth media prior to diluting 1:5 on cells for final concentration 10 μM to 0.1 nM in 0.1% DMSO on cells. […] Plates were read in luminescence mode and IC50 values calculated.
(§4) The cellular activity of Compound 1 was evaluated in ER+, HER2− MCF7 cells and CCNE1-amplified ovarian carcinoma. Activity was determined by inhibition of phosphorylation of […]

NCIH358 = assay: Cell proliferation assay (CYQUANT, 7 days), NCIH358; assay type: cell-based; details: Homo sapiens, NCI-H358, 168 h, read-out: IC50 ± SEM, proliferation inhibition
Protocol: as §1, §2

[2] = Mouse early toxicology screening (ETS) study; assay type: in vivo; details: for bone marrow histology: day 14, Compound 1 75 mg/kg BID, PF-06873600 150 mg/kg BID, compared with vehicle
Protocol: Three groups of ten-week-old male CD1 mice were separately evaluated in early toxicology screening studies. Group 1 (n=5/group) were administered an oral dose of 25, 50 and 75 mg/kg BID of Compound 1 for 14 days. Group 2 (n=5/group) were administered an oral dose of 25, 75 and 150 mg/kg BID of PF-06873600 for 14 days. A vehicle control Group 3 (n=5/group) were also included where vehicle was administered BID for 14 days. Study evaluations included clinical observations, body weights, clinical pathology, toxicokinetics, gross pathology and microscopic pathology.
At the end of the ETS study on day 14, mice were sacrificed and images of the mouse bone marrow from each study group (n=5) were obtained.
The systemic exposure of Compound 1 and PF-06873600 were also compared. Exposures from mouse toxicity studies were determined using plasma samples collected as timepoints on day 8 or 14 of the study and were processed using protein precipitation with solvent mixture acetonitrile:methanol (1:1) containing internal standard verapamil followed by quantitation by LC-MS/MS against a standard curve prepared in blank plasma. The free plasma concentrations were calculated using the mouse plasma protein binding for compound 1 (fup=0.182) and PF-06873600 (fup=0.277). (FIG. 3)

[3] = Human hepatocyte stability; assay type: in vitro ADME; details: hepatocytes, 0.5 million cells/mL, 37° C., 4 hours, read-out: CLint HHEP: CLint in human hepatocytes (in vitro)
Protocol: At various time points, samples were taken and analyzed by LC-MS/MS. CLint HHEP was calculated based on loss of parent compound over time using equations discussed in “A novel relay method for determining low-clearance values,” Drug Metab Dispos., 2012; 40(9):1860-5.

T47D parental = assay: Cell proliferation assay (CYQUANT, 7 days), T47D parental; assay type: cell-based; details: Homo sapiens, 168 h, read-out: IC50 ± SEM, proliferation inhibition
Protocol: as §1, §2

[4] = system: phosphorylation of Rb protein at serines 807/811 in OVCAR3 cells; assay: Phospho-Serine 807/811 Rb ELISA in OVCAR3 cells; assay type: cell-based; details: Homo sapiens, read-out: IC50 ± SEM, modulation of pRB Serine 807/811
Protocol: as §1, §3, §4

MCF7 PalboR = assay: Cell proliferation assay (CYQUANT, 7 days), MCF7 PalboR; assay type: cell-based; details: Homo sapiens, read-out: IC50 ± SEM, proliferation inhibition
Protocol: as §1
as §2, with “CO2.” for “CO2. The following day, compounds were serially diluted from a 10 mM top dose for an 11-point 3-fold dilution curve in DMSO.”
The effect of Compound 1 on cell proliferation was assessed in multiple ER+ breast cancer cell lines, including parental and palbociclib resistant cell lines.

| Structure (SMILES) | IC50 (MCF7 parental; 168 h, MCF7 parental, 7 days, mean) | IC50 ([1]; MCF7, mean, treated 24 h (overnight)) | IC50 (NCIH358; NCIH358, 7 days, mean) | bone marrow histology [2] | neutropenia ([2]; male CD1 mice, oral 25, 50 and 75 mg/kg BID for 14 days) | hepatocyte CLint at 1 μM [3] | IC50 (T47D parental; T47D parental, 7 days, mean) | IC50 ([4]; OVCAR-3, OVCAR3, mean, treated 1 h after overnight 1 mM hydroxyurea) | IC50 (MCF7 PalboR; 168 h, MCF7 PalboR, 7 days, mean) | IC50 (MCF7 parental; MCF7, 168 h) | IC50 ([1]; MCF7, 24 h) | IC50 (NCIH358) | IC50 (T47D parental; T47D) | IC50 ([4]; OVCAR-3, 1 h) | IC50 (MCF7 PalboR; MCF7, 168 h) |
| --- | --- | --- | --- | --- | --- | --- | --- | --- | --- | --- | --- | --- | --- | --- | --- |
| C[C@@]1(O)CCC[C@H]1n1c(=O)c(CC(F)F)cc2cnc(NC3CCN(S(N)(=O)=O)CC3)nc21 [Compound 1, 4-({6-(2,2-difluoroethyl)-8-[(1R,2R)-2-hydroxy-2-methylcyclopentyl]-7-oxo-7,8-dihydropyrido[2,3-d]pyrimidin-2-yl}amino)piperidine-1-sulfonamide] | 16.8 ± 6.7 nM | 148 nM | 21 ± 2.2 nM | lack of impact on the mouse bone marrow | no neutropenia was observed | ~2 µL/min/1e6 cells | 17.6 ± 2.5 nM | 16.2 nM | 37.3 ± 2.8 nM | – | – | – | – | – | – |
| C[C@@]1(O)CCC[C@H]1n1c(=O)c(C(F)F)cc2cnc(NC3CCN(S(C)(=O)=O)CC3)nc21 [Compound 2, reference compound] | – | – | – | vacuoles and large spaces between cells in the bone marrow image indicating cell death/apoptosis | – | ~2 µL/min/1e6 cells | – | – | – | 38.6 ± 10.2 nM | 70.6 nM | 39 nM | 70.6 ± 14.1 nM | 21.8 nM | 111 ± 56.1 nM |
